Laboratory results taken from patent US20250144094A1 (Erasca, Inc., priority 2021, published 2025).
pIC50: −log10 of the molar value.

Molecular target: Recombinant human ULK1 (1-649) (Homo sapiens (Human), UniProt O75385)
Test: ULK1 ADP Glo kinase activity assay, new method (ULKtide peptide substrate)
Conditions: 25° C., 40 minutes, read-out: ULK1 biochemical IC50
Protocol: Recombinant human ULK1 (1-649) protein expressed in Sf9 insect cells was obtained from SignalChem (Vancouver, BC), catalog #U01-11G. Active kinase was purified via N-terminal GST tag to >85% purity.
ADP GLO Kinase Assay Reagents were obtained from Promega Corp (Madison, WI), catalog #V9104.
Synthetic peptide substrate (ULKtide) with the amino acid sequence YANWLAASIYLDGKKK was obtained from ThermoFisher Scientific USA.
ULK1 inhibitor potency was determined using the luminescent ADP Glo Kinase Assay (Promega), a universal ADP detection system that measures kinase activity by quantifying the amount of ADP produced during a kinase reaction. ULK1 kinase reactions are performed in a standard 96-well microplate (20 μL reaction volume) at 25° C. for 40 minutes in the presence or absence of the test compound (12-point dilution series starting at 10 μM). Addition of peptide substrate and ATP initiates the kinase reaction.
The standard ADP Glo assay is performed in two steps. In step one, following the kinase reaction, an equal volume of ADP-Glo™ Reagent (20 μL) is added to terminate the kinase reaction and deplete the remaining ATP. In the second step, the Kinase Detection Reagent (10 μL) is added to simultaneously convert ADP to ATP and allow the newly synthesized ATP to be measured using a luciferase/luciferin reaction. Step two of the ADP Glo assay is performed in a white 384-well plate (20 μL final volume). Thirty minutes after the addition of the Detection reagent, light generated from the luciferase reaction is measured (1 second exposure) using a microplate compatible luminometer (CLARIOstar, BMG Labtech).
Inhibition of ULK1 kinase activity is determined for each test compound by comparison to DMSO only control wells. Inhibitor IC50 was calculated by plotting the change in luminescence after 30 minutes (response) versus inhibitor concentration (in log molar) then applying the four-parameter variable slope curve fit (GraphPad Prism). Inhibition of ULK1 in biochemical assay is found in Table 4.

Chain of Recombinant human ULK1 (1-649) (O75385 1-649): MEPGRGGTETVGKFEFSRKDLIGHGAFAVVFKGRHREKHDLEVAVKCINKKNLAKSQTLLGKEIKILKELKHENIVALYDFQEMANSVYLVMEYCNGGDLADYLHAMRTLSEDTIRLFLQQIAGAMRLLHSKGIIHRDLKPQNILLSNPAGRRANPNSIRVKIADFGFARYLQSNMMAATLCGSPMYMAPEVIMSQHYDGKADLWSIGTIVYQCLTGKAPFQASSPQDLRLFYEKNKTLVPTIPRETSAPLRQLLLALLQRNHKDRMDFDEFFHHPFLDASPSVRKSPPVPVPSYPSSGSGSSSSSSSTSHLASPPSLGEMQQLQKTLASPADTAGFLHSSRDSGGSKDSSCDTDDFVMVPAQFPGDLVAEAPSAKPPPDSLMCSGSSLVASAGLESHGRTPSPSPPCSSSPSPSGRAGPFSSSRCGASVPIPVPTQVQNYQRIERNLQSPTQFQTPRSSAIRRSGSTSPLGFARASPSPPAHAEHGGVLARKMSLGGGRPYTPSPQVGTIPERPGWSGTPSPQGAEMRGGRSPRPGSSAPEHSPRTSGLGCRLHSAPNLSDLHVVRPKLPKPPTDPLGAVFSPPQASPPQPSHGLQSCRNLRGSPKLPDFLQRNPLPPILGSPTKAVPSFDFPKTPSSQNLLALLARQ

Row | SMILES | pIC50
1 | Cc1cc2c(cc1Nc1ncc(C(F)(F)F)c(-c3cc4c(s3)C(=O)N(C)CCS4(=O)=O)n1)CCNC2 [Example 184, 4-methyl-7-(2-((7-methyl-1,2,3,4-tetrahydroisoquinolin-6-yl)amino)-5-(trifluoromethyl)pyrimidin-4-yl)-3,4-dihydrothieno[2,3-f][1,4]thiazepin-5(2H)-one 1,1-dioxide] | ≥ 8.30
2 | CCN1CCc2cc(Nc3ncc(C(F)(F)F)c(-c4cc5c(s4)C(=O)N(C)CCS5(=O)=O)n3)c(C)cc2C1 [Example 185, 7-(2-((2-ethyl-7-methyl-1,2,3,4-tetrahydroisoquinolin-6-yl)amino)-5-(trifluoromethyl)pyrimidin-4-yl)-4-methyl-3,4-dihydrothieno[2,3-f][1,4]thiazepin-5(2H)-one 1,1-dioxide] | ≥ 8.30
3 | CCN1CCc2cc(Nc3ncc(C(F)(F)F)c(-c4cc5c(s4)C(=O)N(C)CCS5(=O)=O)n3)c(C3CC3)cc2C1 [Example 186, 7-(2-((7-cyclopropyl-2-ethyl-1,2,3,4-tetrahydroisoquinolin-6-yl)amino)-5-(trifluoromethyl)pyrimidin-4-yl)-4-methyl-3,4-dihydrothieno[2,3-f][1,4]thiazepin-5(2H)-one 1,1-dioxide] | ≥ 8.30
4 | Cc1nn(CCN(C)C)cc1Nc1ncc(C(F)(F)F)c(-c2cc3c(s2)C(=O)N(C)CCS3(=O)=O)n1 [Example 187, 7-(2-((1-(2-(dimethylamino)ethyl)-3-methyl-1H-pyrazol-4-yl)amino)-5-(trifluoromethyl)pyrimidin-4-yl)-4-methyl-3,4-dihydrothieno[2,3-f][1,4]thiazepin-5(2H)-one 1,1-dioxide] | ≥ 8.30
5 | CCN1CCc2cc(Nc3ncc(C(F)(F)F)c(-c4cc5c(s4)C(=O)N(C)CCS5(=O)=O)n3)c(SC)cc2C1 [Example 188, 7-(2-((2-ethyl-7-(methylthio)-1,2,3,4-tetrahydroisoquinolin-6-yl)amino)-5-(trifluoromethyl)pyrimidin-4-yl)-4-methyl-3,4-dihydrothieno[2,3-f][1,4]thiazepin-5(2H)-one 1,1-dioxide] | ≥ 8.30
6 | CN1CCS(=O)(=O)c2cc(-c3nc(Nc4cc(N5CCNCC5)ccc4Cl)ncc3C(F)(F)F)sc2C1=O [Example 189, 7-(2-((2-chloro-5-(piperazin-1-yl)phenyl)amino)-5-(trifluoromethyl)pyrimidin-4-yl)-4-methyl-3,4-dihydrothieno[2,3-f][1,4]thiazepin-5(2H)-one 1,1-dioxide] | 7.00 to 7.30
7 | CCN1Cc2cc(F)c(Nc3ncc(C(F)(F)F)c(-c4cc5c(s4)C(=O)N(C)CCS5(=O)=O)n3)cc2C1 [Example 190, 7-(2-((2-ethyl-6-fluoroisoindolin-5-yl)amino)-5-(trifluoromethyl)pyrimidin-4-yl)-4-methyl-3,4-dihydrothieno[2,3-f][1,4]thiazepin-5(2H)-one 1,1-dioxide] | ≥ 8.30
8 | CCN1Cc2ccc(Nc3ncc(C(F)(F)F)c(-c4cc5c(s4)C(=O)N(C)CCS5(=O)=O)n3)c(C3CC3)c2C1 [Example 191, 7-(2-((4-cyclopropyl-2-ethylisoindolin-5-yl)amino)-5-(trifluoromethyl)pyrimidin-4-yl)-4-methyl-3,4-dihydrothieno[2,3-f][1,4]thiazepin-5(2H)-one 1,1-dioxide] | 7.00 to 7.30
9 | CCN1Cc2cc(C)c(Nc3ncc(C(F)(F)F)c(-c4cc5c(s4)C(=O)N(C)CCS5(=O)=O)n3)cc2C1 [Example 192, 7-(2-((2-ethyl-6-methylisoindolin-5-yl)amino)-5-(trifluoromethyl)pyrimidin-4-yl)-4-methyl-3,4-dihydrothieno[2,3-f][1,4]thiazepin-5(2H)-one 1,1-dioxide] | ≥ 8.30
10 | CN1CCS(=O)(=O)c2cc(-c3nc(Nc4ccc(N5CCNCC5)cc4Cl)ncc3C(F)(F)F)sc2C1=O [Example 193, 7-(2-((2-chloro-4-(piperazin-1-yl)phenyl)amino)-5-(trifluoromethyl)pyrimidin-4-yl)-4-methyl-3,4-dihydrothieno[2,3-f][1,4]thiazepin-5(2H)-one 1,1-dioxide] | ≥ 8.30
11 | CCN1CCN(c2ccc(Nc3ncc(C(F)(F)F)c(-c4cc5c(s4)C(=O)N(C)CCS5(=O)=O)n3)c(Cl)c2)CC1 [Example 195, 7-(2-((2-chloro-4-(4-ethylpiperazin-1-yl)phenyl)amino)-5-(trifluoromethyl)pyrimidin-4-yl)-4-methyl-3,4-dihydrothieno[2,3-f][1,4]thiazepin-5(2H)-one 1,1-dioxide] | ≥ 8.30
12 | CCc1cc(N2CCN(C)CC2)ccc1Nc1ncc(C(F)(F)F)c(-c2cc3c(s2)C(=O)N(C)CCS3(=O)=O)n1 [Example 196, 7-(2-((2-ethyl-4-(4-methylpiperazin-1-yl)phenyl)amino)-5-(trifluoromethyl)pyrimidin-4-yl)-4-methyl-3,4-dihydrothieno[2,3-f][1,4]thiazepin-5(2H)-one 1,1-dioxide] | ≥ 8.30
13 | CCc1cc(N2CCN(CC)CC2)ccc1Nc1ncc(C(F)(F)F)c(-c2cc3c(s2)C(=O)N(C)CCS3(=O)=O)n1 [Example 197, 7-(2-((2-ethyl-4-(4-ethylpiperazin-1-yl)phenyl)amino)-5-(trifluoromethyl)pyrimidin-4-yl)-4-methyl-3,4-dihydrothieno[2,3-f][1,4]thiazepin-5(2H)-one 1,1-dioxide] | ≥ 8.30
14 | CCN1CCS(=O)(=O)c2cc(-c3nc(Nc4cc5c(cc4C4CC4)CNCC5)ncc3C(F)(F)F)sc2C1=O [Example 198, 7-(2-((7-cyclopropyl-1,2,3,4-tetrahydroisoquinolin-6-yl)amino)-5-(trifluoromethyl)pyrimidin-4-yl)-4-ethyl-3,4-dihydrothieno[2,3-f][1,4]thiazepin-5(2H)-one 1,1-dioxide] | ≥ 8.30
15 | CCN1CCc2cc(Nc3ncc(C(F)(F)F)c(-c4cc5c(s4)C(=O)N(CC)CCS5(=O)=O)n3)c(C3CC3)cc2C1 [Example 199, 7-(2-((7-cyclopropyl-2-ethyl-1,2,3,4-tetrahydroisoquinolin-6-yl)amino)-5-(trifluoromethyl)pyrimidin-4-yl)-4-ethyl-3,4-dihydrothieno[2,3-f][1,4]thiazepin-5(2H)-one 1,1-dioxide] | ≥ 8.30
16 | CN1CCS(=O)(=O)c2cc(-c3nc(Nc4cc5nnn(C)c5cc4Cl)ncc3C(F)(F)F)sc2C1=O [Example 200, 7-(2-((6-chloro-1-methyl-1H-benzo[d][1,2,3]triazol-5-yl)amino)-5-(trifluoromethyl)pyrimidin-4-yl)-4-methyl-3,4-dihydrothieno[2,3-f][1,4]thiazepin-5(2H)-one 1,1-dioxide] | < 7.00
17 | O=C1c2sc(-c3nc(Nc4cc5c(cc4Cl)CCNC5)ncc3C(F)(F)F)cc2S(=O)(=O)CCN1C1CC1 [Example 201, 7-(2-((6-chloro-1,2,3,4-tetrahydroisoquinolin-7-yl)amino)-5-(trifluoromethyl)pyrimidin-4-yl)-4-cyclopropyl-3,4-dihydrothieno[2,3-f][1,4]thiazepin-5(2H)-one 1,1-dioxide] | ≥ 8.30
18 | O=C1c2sc(-c3nc(Nc4cc5c(cc4Cl)CCNC5)ncc3C(F)(F)F)cc2S(=O)(=O)CCN1C1CCC1 [Example 202, 7-(2-((6-chloro-1,2,3,4-tetrahydroisoquinolin-7-yl)amino)-5-(trifluoromethyl)pyrimidin-4-yl)-4-cyclobutyl-3,4-dihydrothieno[2,3-f][1,4]thiazepin-5(2H)-one 1,1-dioxide] | ≥ 8.30
19 | CCN1CCc2cc(Nc3ncc(C(F)(F)F)c(-c4cc5c(s4)C(=O)N(C4CCC4)CCS5(=O)=O)n3)c(Cl)cc2C1 [Example 203, 7-(2-((7-chloro-2-ethyl-1,2,3,4-tetrahydroisoquinolin-6-yl)amino)-5-(trifluoromethyl)pyrimidin-4-yl)-4-cyclobutyl-3,4-dihydrothieno[2,3-f][1,4]thiazepin-5(2H)-one 1,1-dioxide] | ≥ 8.30
20 | CCN1CCS(=O)(=O)c2cc(-c3nc(Nc4cc5c(cc4Cl)CCNC5)ncc3C(F)(F)F)sc2C1=O [Example 204, 7-(2-((6-chloro-1,2,3,4-tetrahydroisoquinolin-7-yl)amino)-5-(trifluoromethyl)pyrimidin-4-yl)-4-ethyl-3,4-dihydrothieno[2,3-f][1,4]thiazepin-5(2H)-one 1,1-dioxide] | ≥ 8.30
21 | Cc1cc2c(cc1Nc1ncc(C(F)(F)F)c(-c3cc4c(s3)C(=O)N(C)CCS4(=O)=O)n1)CCN(CC1CC1)C2 [Example 205, 7-(2-((2-(cyclopropylmethyl)-7-methyl-1,2,3,4-tetrahydroisoquinolin-6-yl)amino)-5-(trifluoromethyl)pyrimidin-4-yl)-4-methyl-3,4-dihydrothieno[2,3-f][1,4]thiazepin-5(2H)-one 1,1-dioxide] | ≥ 8.30
22 | CN1CCS(=O)(=O)c2cc(-c3nc(Nc4ccc(N5CCN(CC6CC6)CC5)cc4Cl)ncc3C(F)(F)F)sc2C1=O [Example 206, 7-(2-((2-chloro-4-(4-(cyclopropylmethyl)piperazin-1-yl)phenyl)amino)-5-(trifluoromethyl)pyrimidin-4-yl)-4-methyl-3,4-dihydrothieno[2,3-f][1,4]thiazepin-5(2H)-one 1,1-dioxide] | ≥ 8.30
